In PubChem BioAssay AID977606 (Broad Institute, 2014):
The source made the active and inactive calls. The rule behind the calls is not given here.

These compounds were tested on INS-1E Gaussia luciferase insulin secretion, no glucose, luminescence (assay: glucose-independent GLuc insulin release activation – cell-based, INS-1E, Gaussia luciferase, luminescence, cherry-pick, counter-screen for glucose-dependent insulin secretion activators, dose response (AID 977606)).

| Structure (SMILES) | AC40 |
| --- | --- |
| Cc1ccc2sc(-c3ccc(NC(=O)c4cc(-n5cnnc5)ccc4Cl)cc3)nc2c1 | 8.4 µM |
| O=C(Nc1nc(-c2ccc(-c3ccccc3)cc2)cs1)C1=COCCO1 | 4.37 µM |
| OC(CNCCc1ccc(C(F)(F)F)cc1)COc1cccc2ccccc12 (centres undefined) | 4.92 µM |
| O=c1[nH]c(/C=C/c2ccc(OC(F)F)cc2)nc2c1cnn2-c1ccccc1 | 25.6 µM |
| Fc1ccc(-c2ccc(C3[C@@H]4CN(Cc5ccccc5)C[C@H]3N4)cc2)cc1 (some centres undefined) | 8.97 µM |
| O=c1c2ccccc2sn1-c1ccc(F)cc1 | 2.43 µM |
| CCOc1ccc(-n2nnnc2-c2nc3ccccc3s2)cc1 | 12.2 µM |
| O=C(Cn1nnc(-c2ccccc2)n1)N=Nc1c(O)[nH]c2ccccc12 | 8.24 µM |
| O=C(NC(=S)Nc1ccc(NC(=O)c2cccs2)cc1)c1cc2ccccc2o1 | 10.9 µM |
| Cc1ncc(N=Nc2ccc(F)cc2)c(-c2ccc(Cl)cc2)n1 | 8.66 µM |
| Cc1ccc(Oc2ncc(-c3ccc(Cl)cc3)cn2)cc1 | 4.48 µM |
| COc1ccccc1NC(=O)N1CCCCN2[C@@H](CO)[C@@H](c3ccc(C#CC4CCCC4)cc3)[C@@H]2C1 | 9.17 µM |
| Cc1ccc(CNc2nc(NCc3ccccc3)nc3ccsc23)c(C)c1 | 5.58 µM |
| C(=C\c1ccc(C2[C@@H]3CN(Cc4nccs4)C[C@H]2N3)cc1)/c1ccccc1 (some centres undefined) | 9.48 µM |
| CCCCCCN1C[C@H](n2cc(C3CC3)nn2)[C@@H](O)C[C@@H]1c1ccc(C)cc1 | 5.22 µM |
| CCCCCCN1C[C@H](n2cc(COC(=O)c3ccccc3)nn2)[C@@H](O)C[C@@H]1c1ccc(C)cc1 | 8.37 µM |
| CC(=O)Nc1cc(-c2cccc(C(=O)NCCN(C)C)c2)cn2c(-c3cccc(C(F)(F)F)c3)cnc12 | 8.13 µM |
| COC(=O)c1ccc2c(=O)[nH]c(CSc3nc(-c4ccc(F)cc4)cs3)nc2c1 | 4.39 µM |
| Cc1cc(C)c2c(C)nn(C3CCCCC3)c2n1 | > 35 µM (inactive) |
| O=C(NCC1OCCc2ccccc21)c1ccc(NC(=O)c2ccc(Cl)cc2)cc1 (centres undefined) | 6.61 µM |
| COc1cccc(CN2C[C@@H]3N[C@H](C2)C3c2ccc(-c3ccccc3OC)cc2)c1 (some centres undefined) | 7.67 µM |
| Cn1c(=O)oc2cc(S(=O)(=O)N3CCC(C(=O)Nc4ccc(OC(F)(F)F)cc4)CC3)ccc21 | 5.04 µM |
| C=CCNc1nc(NCc2ccco2)nc(OCC)n1 | > 35 µM (inactive) |
| CC(=O)N(/N=C/c1cccc(C)c1)c1nc(-c2ccc(Br)cc2)cs1 | 2.15 µM |
| NCCCNC(=S)NCCCN(Cc1ccc(Cl)cc1)c1ccc(Br)cn1 | 23.4 µM |
| COc1ccc(C2=NN(C(C)=O)C(c3cccs3)C2)cc1OC (centres undefined) | > 35 µM (inactive) |
| COc1cc(CN2C[C@@H]3N[C@H](C2)C3c2ccc(/C=C/c3ccccc3)cc2)cc(OC)c1 (some centres undefined) | 1.76 µM |

| Structure (SMILES) | AC40 |
| --- | --- |
| COc1ccc(C)c2sc(N(CCCN(C)C)C(=O)c3ccc(S(=O)(=O)N4CCc5ccccc5C4)cc3)nc12 | 3.62 µM |
| CCCCc1c(-c2ccccc2OC)ncn1C(C)c1ccc(Cl)cc1 (centres undefined) | 7.72 µM |
| COc1ccc2c(c1)C(=NNC(=O)c1ccccn1)c1cc(OC)ccc1-2 | 2.66 µM |
| OC(c1ccccc1)(c1ccccc1)C1CCN(CCCOc2ccc(-c3ccc(F)cc3F)cc2)CC1 | 1.29 µM |
| O=C(Cn1c(COc2ccccc2)nc2ccccc21)Nc1cc(Cl)cc(Cl)c1 | 5.2 µM |
| Cc1ccc(NC(=O)c2cc(-c3ccccc3O)n[nH]2)cc1C | > 35 µM (inactive) |
| COc1cc(OC)c2c3c(c(C4CCCCC4)nc2c1)CCC3 | 7.44 µM |
| C=CCNc1nc(Cl)nc(Nc2ccc(OC)cc2)n1 | 11.3 µM |
| Cc1[nH]c2ccc(OC(F)(F)F)cc2c1CCNCc1ccc(Cl)cc1 | 5.89 µM |
| O=C(NCCC1=CCCCC1)C(=O)NCC(c1ccco1)N1CCN(c2ccccc2)CC1 (centres undefined) | 3.54 µM |
| CC(C)(C)c1ccc(-c2cc(-c3ccccc3O)[nH]n2)cc1 | 5.34 µM |
| O=c1c(C=Nc2ccc(Oc3ccccc3)cc2)c[nH]n1-c1cccc(Cl)n1 | 4.28 µM |
| CCOc1ccccc1CNC(c1ccccc1)c1ccccc1 | 2.21 µM |
| Cc1ccc(CC2(OCCN(C)C)CCC(C(C)(C)C)CC2)cc1 (centres undefined) | 5.45 µM |
| Cc1cccn2cc(CNS(=O)(=O)c3ccc4ccccc4c3)nc12 | 2.91 µM |
| COC(=O)C1=C(C)N(Cc2ccc(C(F)(F)F)cc2)C(=NCc2ccccc2)NC1c1ccc(Cl)cc1 (centres undefined) | 10.8 µM |
| COc1ccnc(N2CCN(c3cccc(C(F)(F)F)c3)CC2)c1C#N | 10.1 µM |
| COc1ccc(S(=O)(=O)N2CCc3ccccc32)cc1C(=O)Nc1cccnc1 | 16.3 µM |
| NC(c1csc(NC(=O)Nc2cccc(C(F)(F)F)c2)n1)C1CCCCC1 (centres undefined) | 6.68 µM |
| COCCn1c(=NC(=O)c2cc(Cl)sc2Cl)sc2cc(S(N)(=O)=O)ccc21 | 6.07 µM |
| COc1ccccc1CCn1cnc(-c2cccc(F)c2)c1CC(C)C | 8.26 µM |
| O=c1c2ccc(Cl)cc2[nH]c(=S)n1CCC1=CCCCC1 | 2.15 µM |
| COC(=O)Cn1cc(C#N)c2ccccc21 | > 35 µM (inactive) |
| COc1ccc(C#Cc2ccc([C@@H]3[C@@H](CO)N4CCCCN(Cc5ccccc5F)C[C@@H]34)cc2)cc1 | 11.1 µM |
| CCN=C1NC(c2ccc(C(F)(F)F)cc2)C(C(=O)OC)=C(C)N1Cc1cccc(C(F)(F)F)c1 (centres undefined) | 3.88 µM |
| Cc1cccc(-c2ccc(C3[C@@H]4CN(C(=O)Nc5ccc(C(F)(F)F)cc5)C[C@H]3N4)cc2)c1 (some centres undefined) | 1.7 µM |
| N#Cc1ccc(-c2ccc([C@@H]3[C@H]4CNC[C@@H]3N4Cc3cc(F)ccc3F)cc2)cc1 | 12.8 µM |
